For 22 compounds, IC50 results are on record in patent US20170152239A1, “BENZAMIDE AND HETEROBENZAMIDE COMPOUNDS” (PFIZER INC., priority 2012, published 2017).

In general, IC50 refers to the midpoint of a concentration-inhibition curve.

Sequence of WT EZH2 (EZH2 4 protein complex: EZH2, EED, SUZ12, RbAp48) (Q15910 whole entry): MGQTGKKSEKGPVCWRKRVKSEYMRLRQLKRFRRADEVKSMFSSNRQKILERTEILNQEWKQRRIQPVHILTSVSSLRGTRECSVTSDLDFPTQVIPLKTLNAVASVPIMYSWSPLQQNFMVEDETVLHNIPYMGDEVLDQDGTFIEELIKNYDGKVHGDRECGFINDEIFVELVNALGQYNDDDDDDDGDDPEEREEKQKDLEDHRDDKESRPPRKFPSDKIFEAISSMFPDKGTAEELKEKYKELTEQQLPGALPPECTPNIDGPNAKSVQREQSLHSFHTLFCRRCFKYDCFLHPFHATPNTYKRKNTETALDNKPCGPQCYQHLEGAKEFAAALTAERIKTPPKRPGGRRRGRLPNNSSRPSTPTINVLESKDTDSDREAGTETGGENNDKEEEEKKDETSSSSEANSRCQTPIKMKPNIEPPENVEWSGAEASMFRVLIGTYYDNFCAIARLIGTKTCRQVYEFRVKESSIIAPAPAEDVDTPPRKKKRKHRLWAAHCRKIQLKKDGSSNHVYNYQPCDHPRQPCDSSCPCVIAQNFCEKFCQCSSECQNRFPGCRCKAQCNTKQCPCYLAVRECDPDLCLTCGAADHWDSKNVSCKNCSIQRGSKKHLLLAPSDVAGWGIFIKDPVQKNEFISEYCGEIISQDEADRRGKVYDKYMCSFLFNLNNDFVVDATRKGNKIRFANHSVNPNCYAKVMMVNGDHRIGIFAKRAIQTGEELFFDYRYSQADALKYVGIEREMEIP
Sequence of WT EZH2 (EZH2 4 protein complex: EZH2, EED, SUZ12, RbAp48) (O75530 whole entry partner): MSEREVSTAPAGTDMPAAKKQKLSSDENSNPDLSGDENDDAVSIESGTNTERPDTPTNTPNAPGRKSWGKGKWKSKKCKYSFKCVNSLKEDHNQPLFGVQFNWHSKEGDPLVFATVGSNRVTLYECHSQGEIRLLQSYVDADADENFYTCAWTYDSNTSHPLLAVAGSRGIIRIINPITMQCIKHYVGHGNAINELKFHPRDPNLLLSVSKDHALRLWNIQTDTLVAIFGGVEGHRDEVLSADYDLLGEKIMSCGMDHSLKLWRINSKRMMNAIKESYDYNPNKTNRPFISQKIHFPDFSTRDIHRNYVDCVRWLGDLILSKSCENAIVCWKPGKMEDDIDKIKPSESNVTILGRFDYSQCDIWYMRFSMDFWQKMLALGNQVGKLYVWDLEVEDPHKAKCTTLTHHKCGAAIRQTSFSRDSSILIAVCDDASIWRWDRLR
Sequence of WT EZH2 (EZH2 4 protein complex: EZH2, EED, SUZ12, RbAp48) (Q15022 whole entry partner): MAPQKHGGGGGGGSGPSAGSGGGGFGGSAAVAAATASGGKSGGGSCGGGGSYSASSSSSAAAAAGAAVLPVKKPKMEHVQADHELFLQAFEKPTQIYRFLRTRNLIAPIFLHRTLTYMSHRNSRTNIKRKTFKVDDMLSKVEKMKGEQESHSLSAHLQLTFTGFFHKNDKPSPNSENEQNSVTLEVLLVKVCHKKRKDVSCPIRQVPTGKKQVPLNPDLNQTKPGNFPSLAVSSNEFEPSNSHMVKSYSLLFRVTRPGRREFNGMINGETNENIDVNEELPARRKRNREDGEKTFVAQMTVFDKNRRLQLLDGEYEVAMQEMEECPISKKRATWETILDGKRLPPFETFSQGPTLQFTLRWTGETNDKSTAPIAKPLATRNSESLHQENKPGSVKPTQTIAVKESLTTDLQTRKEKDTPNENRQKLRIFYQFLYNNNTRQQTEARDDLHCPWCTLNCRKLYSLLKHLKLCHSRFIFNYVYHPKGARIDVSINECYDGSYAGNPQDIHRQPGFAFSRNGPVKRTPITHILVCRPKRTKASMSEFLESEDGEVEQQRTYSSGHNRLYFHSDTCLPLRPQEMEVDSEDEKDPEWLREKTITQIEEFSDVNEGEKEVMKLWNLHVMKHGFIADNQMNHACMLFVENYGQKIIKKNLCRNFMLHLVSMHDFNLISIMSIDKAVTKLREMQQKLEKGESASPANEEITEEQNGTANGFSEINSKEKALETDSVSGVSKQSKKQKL
Sequence of WT EZH2 (EZH2 4 protein complex: EZH2, EED, SUZ12, RbAp48) (Q09028 whole entry partner): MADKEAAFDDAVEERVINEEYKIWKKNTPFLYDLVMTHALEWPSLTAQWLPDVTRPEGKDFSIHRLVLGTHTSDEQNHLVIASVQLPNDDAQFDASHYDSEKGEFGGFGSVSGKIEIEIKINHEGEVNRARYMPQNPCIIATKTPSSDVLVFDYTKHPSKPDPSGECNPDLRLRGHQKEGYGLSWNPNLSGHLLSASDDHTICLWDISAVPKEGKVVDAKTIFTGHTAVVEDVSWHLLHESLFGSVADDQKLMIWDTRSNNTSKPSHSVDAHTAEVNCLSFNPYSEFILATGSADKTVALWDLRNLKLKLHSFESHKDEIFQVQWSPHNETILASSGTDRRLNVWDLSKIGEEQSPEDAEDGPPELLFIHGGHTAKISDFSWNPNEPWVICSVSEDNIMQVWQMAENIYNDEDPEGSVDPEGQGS

The assay addresses WT EZH2 (EZH2 4 protein complex: EZH2, EED, SUZ12, RbAp48) (Homo sapiens, UniProt O75530+Q09028+Q15022+Q15910). In words: WT EZH2 nucleosome assay. The assay is classed as biochemical. Conditions: nucleosome assay, 5 nM EZH2 4-protein complex, 1.5 μM SAM; read-out: WT EZH2 IC50. The protocol: Nucleosome Assay Protocol:
A. Compound preparation • 1. Prepare 10 mM stock solutions in 100% DMSO from solid material • 2. Serial dilute 10 mM compound stocks either 2 or 3-fold in 100% DMSO to generate compounds for 11 point dose response
B. Reagent preparation • 1. Prepare 1× assay buffer containing 100 mM Tris pH 8.5, 4 mM DTT and 0.01% Tween-20 • 2. Dilute purified HeLA oligonucleosomes and recombinant histone H1 (New England Biolabs) in assay buffer to 1.67×. • 3. Dilute EZH2 4 protein complex (EZH2, EED, SUZ12, RbAp48) to 3.5× in assay buffer • 4. Prepare 10×^3H SAM solution in assay buffer using 0.94 μCi/well of radioactive SAM (Perkin Elmer) and sufficient non-labeled SAM (Sigma) for 1.5 μM final concentration. • 5. Dilute TCA to 20% in DI water
C. Enzyme reaction • 1. Final reaction conditions are 5 nM EZH2 4-protein complex, 1.5 μM SAM, 25 μg/mL oligonucleosomes, 50 nM rH1 in a 50 μl reaction volume. • 2. Add 1 μl of diluted compound to the assay plate (96-well V-bottom polypropylene plates) or 1 μl of DMSO for control wells. • 3. Add 30 μl of nucleosomes to the assay plate • 4. Add 14 μl of EZH2 4 protein complex to the assay plate • 5. Add 5 μl of ^3H SAM to start the reaction. • 6. Stop the reaction after 60 minutes with the addition of 100 μl of 20% TCA • 7. Transfer 150 μl of quenched reaction into a prepared filterplate (Millipore #MSIPN4B10) • 8. Apply vacuum to the filterplate to filter the reaction mix through the membrane. • 9. Wash the filterplate with 8×200 μl of PBS, blot dry and dry in an oven for 30 minutes • 10. Add 50 μl of microscint-20 scintillation fluid (Perkin Elmer) to each well, wait 30 minutes and count on a liquid scintillation counter.
D. Data analysis • 1. IC50 values were determined by fitting the data to a 4-parameter IC50 equation using proprietary curve fitting software.
Wild type (WT) EZH2% Effect at 20 μM and IC50 values (μM) generated in WT EZH2 or EZH2PRC2 mutant Y641N nucleosome assays are provided in Table 3 below. A blank entry in the table indicates the data was not generated in that assay.
Regarding `Cc1cc(C)c(CNC(=O)c2nc(OCCN3CCC(F)(F)CC3)nc(-c3ccnn3C)c2C)c(=O)[nH]1` [Example 98, 2-[2-(4,4-difluoropiperi-din-1-yl)ethoxy]-N-[(4,6-dimethyl-2-oxo-1,2-dihydropyridin-3-yl)methyl]-5-methyl-6-(1-methyl-1H-pyrazol-5-yl)pyrimidine-4-carboxamide], the half-maximal inhibitory concentration (IC50) came to 17.3 µM.

In the case of `Cc1cc(C)c(CNC(=O)c2nc(N3C[C@@H]4[C@@H](N)[C@@H]4C3)nc(-c3ccnn3C)c2C)c(=O)[nH]1` [Example 56, 2-[(1R,5S,6S)-6-amino-3-azabicyclo[3.1.0]hex-3-yl]-N-[(4,6-dimethyl-2-oxo-1,2-dihydropyridin-3-yl)methyl]-5-methyl-6-(1-methyl-1H-pyrazol-5-yl)pyrimidine-4-carboxamide], the half-inhibitory concentration (IC50) worked out at 3.18 µM. Next, `Cc1cc(C)c(CNC(=O)c2cc(Cl)cc(-n3nccc3C)c2C)c(=O)[nH]1` [Example 63, 5-chloro-N-[(4,6-dimethyl-2-oxo-1,2-dihydropyridin-3-yl)methyl]-2-methyl-3-(5-methyl-1H-pyrazol-1-yl)benzamide]: 4.38 µM; `Cc1cc(C)c(CNC(=O)c2cccc(-c3c(C)nn(C)c3C)c2C)c(=O)[nH]1` [Example 70, N-[(4,6-dimethyl-2-oxo-1,2-dihydropyridin-3-yl)methyl]-2-methyl-3-(1,3,5-trimethyl-1H-pyrazol-4-yl)benzamide]: 5.21 µM; `Cc1cc(C)c(CNC(=O)c2cc(-c3cnc(N4C5CCC4COC5)nc3)cc(-c3c(C)cnn3C)c2C)c(=O)[nH]1` [Example 23, N-[(4,6-dimethyl-2-oxo-1,2-dihydropyridin-3-yl)methyl]-3-(1,4-dimethyl-1H-pyrazol-5-yl)-2-methyl-5-{2-[3-oxa-8-azabicyclo[3.2.1]oct-8-yl]pyrimidin-5-yl}benzamide]: 0.015 µM.

`Cc1cc(C)c(CNC(=O)c2ncnc(N3CCC[C@@H]3C)c2C)c(=O)[nH]1` [Example 71, N-[(4,6-dimethyl-2-oxo-1,2-dihydropyridin-3-yl)methyl]-5-methyl-6-[(2S)-2-methylpyrroli-din-1-yl]pyrimidine-4-carboxamide]: the IC50 turned out to be 6.33 µM. The same measure for `Cc1cc(C)c(CNC(=O)c2nc(O[C@H]3CCOC3)nc(-c3ccnn3C)c2C)c(=O)[nH]1` [Example 114, N-[(4,6-dimethyl-2-oxo-1,2-dihydropyridin-3-yl)methyl]-5-methyl-6-(1-methyl-1H-pyrazol-5-yl)-2-[(3S)-tetrahydro-furan-3-yloxy]pyrimidine-4-carboxamide]: 28.4 µM; for `Cc1cc(C)c(CNC(=O)c2nc(OCCN3CCC(F)(F)C3)nc(-c3ccnn3C)c2C)c(=O)[nH]1` [Example 105, 2-[2-(3,3-difluoropyrroli-din-1-yl)ethoxy]-N-[(4,6-dimethyl-2-oxo-1,2-dihydropyridin-3-yl)methyl]-5-methyl-6-(1-methyl-1H-pyrazol-5-yl)pyrimidine-4-carboxamide]: 19.8 µM. Next, `Cc1cc(C)c(CNC(=O)c2cccc(-c3c(Cl)cnn3C)c2C)c(=O)[nH]1` [Example 10, 3-(4-chloro-1-methyl-1H-pyrazol-5-yl)-N-[(4,6-dimethyl-2-oxo-1,2-dihydropyridin-3-yl)methyl]-2-methylbenzamide]: 0.38 µM; `COc1ccc(OC)c(C(=O)NCc2c(C)cc(C)[nH]c2=O)c1OC` [Example 140, N-[(4,6-dimethyl-2-oxo-1,2-dihydropyridin-3-yl)methyl]-2,3,6-trimethoxy-benzamide]: more than 200 µM; `COc1nc(C(=O)NCc2c(C)cc(C)[nH]c2=O)c(C)c(-c2ccnn2C)n1` [Example 108, N-[(4,6-dimethyl-2-oxo-1,2-dihydropyridin-3-yl)methyl]-2-methoxy-5-methyl-6-(1-methyl-1H-pyrazol-5-yl)pyrimidine-4-carboxamide]: 22.2 µM.

In the case of `Cc1cc(C)c(CNC(=O)c2nc(-c3ccc(N)nc3)nc(-c3ccnn3C)c2C)c(=O)[nH]1` [Example 34, 2-(6-aminopyridin-3-yl)-N-[(4,6-dimethyl-2-oxo-1,2-dihydropyridin-3-yl)methyl]-5-methyl-6-(1-methyl-1H-pyrazol-5-yl)pyrimidine-4-carboxamide], the IC50 turned out to be 0.94 µM. Next, `Cc1cc(C)c(CNC(=O)c2ccnc(-c3ccnn3C)c2Cl)c(=O)[nH]1` [Example 91, 3-chloro-N-[(4,6-dimethyl-2-oxo-1,2-dihydropyridin-3-yl)methyl]-2-(1-methyl-1H-pyrazol-5-yl)isonicotin-amide]: 12.1 µM. As for `Cc1cc(C)c(CNC(=O)c2ccnc(N3CCC[C@@H]3C)c2Cl)c(=O)[nH]1` [Example 69, 3-chloro-N-[(4,6-dimethyl-2-oxo-1,2-dihydropyridin-3-yl)methyl]-2-[(2S)-2-methylpyrroli-din-1-yl]isonicotinamide], the IC50 is 5.19 µM. Next, `Cc1cc(C)c(CNC(=O)c2ncnc(N3CC[C@H](C)C3)c2C)c(=O)[nH]1` [Example 107, N-[(4,6-dimethyl-2-oxo-1,2-dihydropyridin-3-yl)methyl]-5-methyl-6-[(3S)-3-methylpyrrolidin-1-yl]pyrimidine-4-carboxamide]: 21.8 µM; `Cc1[nH]c(=O)c(CNC(=O)c2cc(Cl)cc(-c3ccnn3C)c2C)c2c1CCCC2` [Example 84, 5-chloro-2-methyl-N-[(1-methyl-3-oxo-2,3,5,6,7,8-hexahydroiso-quinolin-4-yl)methyl]-3-(1-methyl-1H-pyrazol-5-yl)benzamide]: 8.14 µM; `Cc1cc(C)c(CNC(=O)c2cc(-c3ccc(N)nc3)cc(-c3ccnn3C)c2C)c(=O)[nH]1` [Example 19, 5-(6-aminopyridin-3-yl)-N-[(4,6-dimethyl-2-oxo-1,2-dihydropyridin-3-yl)methyl]-2-methyl-3-(1-methyl-1H-pyrazol-5-yl)benzamide]: 0.041 µM.

Consider `Cc1cc(C)c(CNC(=O)c2ncnc(N3CCCC3C(C)C)c2C)c(=O)[nH]1` (stereo not shown) [Example 112, N-[(4,6-dimethyl-2-oxo-1,2-dihydropyridin-3-yl)methyl]-6-(2-isopropylpyrroli-din-1-yl)-5-methylpyrimidine-4-carboxamide], for which the IC50 is 25.3 µM. The same measure for `Cc1cc(C)c(CNC(=O)c2cccc(-c3c(C)ncnc3C)c2C)c(=O)[nH]1` [Example 64, N-[(4,6-dimethyl-2-oxo-1,2-dihydropyridin-3-yl)methyl]-3-(4,6-dimethylpyrimi-din-5-yl)-2-methylbenz-amide]: 4.42 µM; for `Cc1cc(C)c(CNC(=O)c2cc(Cl)cc(-n3cnnc3C)c2C)c(=O)[nH]1` [Example 78, 5-chloro-N-[(4,6-dimethyl-2-oxo-1,2-dihydropyridin-3-yl)methyl]-2-methyl-3-(3-methyl-4H-1,2,4-triazol-4-yl)benzamide]: 7.31 µM; for `CCc1cnn(C)c1-c1cccc(C(=O)NCc2c(C)cc(C)[nH]c2=O)c1C` [Example 39, N-[(4,6-dimethyl-2-oxo-1,2-dihydropyridin-3-yl)methyl]-3-(4-ethyl-1-methyl-1H-pyrazol-5-yl)-2-methylbenz-amide]: 0.87 µM.

Regarding `CNc1ncc(-c2nc(C(=O)NCc3c(C)cc(C)[nH]c3=O)c(C)c(-c3ccnn3C)n2)cn1` [Example 47, N-[(4,6-dimethyl-2-oxo-1,2-dihydropyridin-3-yl)methyl]-5-methyl-2′-(methylamino)-6-(1-methyl-1H-pyrazol-5-yl)-2,5′-bipyrimidine-4-carboxamide], the IC50 came out at 1.7 µM.
